# Reference: publication PMC4165891, “A Cell-Based High-Throughput Screen for Novel Chemical Inducers of Fetal Hemoglobin for Treatment of Hemoglobinopathies” (PLoS ONE, 2014)
# Columns and labels:
# [1] = system: human γ-globin gene expression; experiment: qRT-PCR of γ-globin mRNA in CID-dependent wild-type β-YAC BMCs; format: cell-based, mouse; details: 48 hours; NaB 2 mM; #7 50 µM; #42 15 µM; #87 100 µM; #125 30 µM; #157 100 µM; #208 25 µM
# Excerpt: (§1) Human erythroid progenitors were generated in vitro from adult CD34^+ stem cells (STEMCELL Technologies, Inc., Vancouver, Canada) using a 2-stage culture system that achieves terminal erythroid differentiation. Standard, but variant, methods for quantitative reverse transcription-PCR (qRT-PCR) and flow-activated cell sorting (FACS) were employed for the two cell types as detailed in File S1. ELISA was used to measure HbF in CID-dependent wild-type β-YAC BMCs as described in the supplement.
# Quantitative reverse transcription-PCR (qRT-PCR). In each experiment, treated and non-treated samples were analyzed in duplicate, 48 hours post-treatment, using SYBR Green dye in a CFX96 instrument (Bio-Rad, Hercules, CA). Expression of γ- and β-globin was calculated using relative quantification, as previously described, [7], using samples from β-YAC transgenic mice as controls. PCR primer sequences utilized for expression studies were: Hu-γ1, 5’-[…]-3’; Hu-γ2, 5’-[…]-3’; β-globin FWD, 5’-[…]-3’; β-globin REV, 5’-[…]-3’; Mo-Gapdh FWD, 5’-[…]-3’; Mo-Gapdh REV, 5’-[…]-3’; Mo-α-globin FWD, 5’-[…]-3’; Mo-α-globin REV, 5’-[…]-3’. Murine Gapdh and α-globin gene expression were used as internal controls for the human β-like globin gene expression. Mean and standard error of the mean were calculated. The Student’s t-test was used to determine statistical significance at P < 0.05 and P < 0.01.
# [2] = system: γ-globin (HbF)-expressing F cells; experiment: FACS analysis of HbF (F cells) in CID-dependent wild-type β-YAC BMCs; format: cell-based, mouse; details: 48 hours; NaB 2 mM; #7 50 µM; #42 15 µM; #87 100 µM; #125 30 µM; #157 100 µM; #208 25 µM; untreated 0.7%
# Excerpt: as §1
# Flow-activated cell sorting (FACS). Detection of HbF in CID-dependent wild-type β-YAC BMCs was performed by flow cytometric analysis. Briefly, 3 x 10^6 cells were cultured for 48 hours with or without treatment. Cells were washed in PBS and fixed in 1 ml 4% fresh paraformaldehyde (Sigma Aldrich, Saint Louis, MO). The cells were centrifuged, the supernatant discarded, and the pellets were resuspended in 1 ml ice cold acetone:methanol (4:1) for 1 minute. Cells were washed twice in ice-cold PBS/0.1% BSA and resuspended in 100 μl PBS/0.1% BSA/0.01% Tween 20 (PBT). One μg sheep anti-human HbF FITC-conjugated antibody (A80-136F, Bethyl Laboratories, Montgomery, TX) in 100 μl PBT was added to the cell suspension and incubated for 40 minutes at room temperature. […] Cells were analyzed using a BD LSRII Flow Cytometer (BD Biosciences, San Jose, CA) with a 530/30 nm (FITC/GFP) emission filter . […]
# HbF-positive cells = experiment: FACS analysis of HbF-positive cells in human primary erythroid progenitors; format: cell-based; details: 48 hours
# Excerpt: as §1
# Human primary erythroid cell culture. Human erythroid progenitors were generated in vitro from adult CD34^+ stem cells (STEMCELL Technologies, Inc., Vancouver, Canada) using a 2-stage culture system that achieves terminal erythroid differentiation. Briefly, CD34^+ stem cells (500,000) were grown in First medium consisting of IMDM containing human AB serum, Interleukin-3 (IL-3,10 ng/ml), stem cell factor (SCF, 10 ng/ml) and erythropoietin (EPO, 2 IU/ml). On day 7 the erythroblasts were placed in Second medium consisting of 2 IU/mL erythropoietin for the duration of culture. […] Cell viability was monitored by trypan blue (0.4%) exclusion. […]
# Flow-activated cell sorting (FACS). […] The labeled cells were analyzed using a Becton-Dickson LSR-II flow cytometer (BD Biosciences, San Jose, CA). […]
# [3] = system: γ-globin to β-globin (γ/β) ratio; experiment: qRT-PCR γ-globin/β-globin mRNA ratio in human primary erythroid progenitors; format: cell-based; details: added day 8 for 48 hours; NaB 2 mM; #7 50 µM; #42 15 µM; #87 100 µM; #208 25 µM (Figure 6 legend)
# Excerpt: as §1
# Human primary erythroid cell culture. Human erythroid progenitors were generated in vitro from adult CD34^+ stem cells (STEMCELL Technologies, Inc., Vancouver, Canada) using a 2-stage culture system that achieves terminal erythroid differentiation. […] Cell viability was monitored by trypan blue (0.4%) exclusion. […]
# Quantitative reverse transcription-PCR (qRT-PCR). The mRNA levels of γ-globin, β-globin, and glyceraldehyde-3-phosphate dehydrogenase (GAPDH) were measured as previously published, [10]. […] The γ-globin, β-globin, and GAPDH mRNA levels were quantitated by Sybergreen qPCR using an iCycler iQ instrument (BioRad, Hercules, CA); standard curves were generated using a Topo7-based plasmid carrying the γ-globin, β-globin, or GAPDH cDNAs (Topo7-γ-globin, Topo7-β-globin, or Topo7-GAPDH, respectively).
# [4] = system: γ-globin promoter-firefly luciferase; experiment: γ-globin promoter-firefly luciferase induction in CID-dependent dual luc β-YAC BMCs (HTS and dose-response reconfirmation); format: cell-based, mouse; details: for fold induction of firefly luciferase by positive control: 2 mM, 24 hours, over DMSO treated controls, primary HTS plates; for responsiveness of dual luc β-YAC BMCs to known γ-globin inducers: data not shown
# Experimental: For HTS experiments, the dual luc β-YAC BMCs were seeded into 384-well plates (Greiner Bio-One, Monroe, NC) at a density of 10,000 cells/30 µl/well by Wellmate bulk dispenser (ThermoScientific Inc., Waltham, MA) in complete media containing the CID, CL-COB-II-293 (synthesized by the University of Kansas COBRE CCET Core C Synthesis Lab, commonly called AP20187). The CID-dependent dual luc β-YAC BMCs were responsive to known γ-globin inducers including valproic acid, sodium butyrate, valeric acid and hydroxyurea (data not shown). Sodium butyrate (2 mM) was selected as the positive control for screening, as a consistent 5–6 fold increase in firefly luciferase activity was obtained in four independent experiments with four different passage numbers. Since both the cell viability and luciferase induction was unaffected at DMSO concentrations below 0.5%, the compound libraries were screened at 10 µM concentration in 0.35% DMSO. Compounds were transferred acoustically using a Labcyte Echo 550 dispenser (Labcyte Inc., Sunnyvale, CA). Based on previous optimizations, 10,000 cells/well in IMDM containing CL-COB-II-293 (100 nM) were added to the wells of 384-well assay plates. The negative (n = 16, DMSO) and positive (n = 16, sodium butyrate, 2 mM) controls were added to the first two columns of each plate to assure uniformity across plates and screening batches. The cells were exposed to compounds for 24 hours at 37°C, 5% CO2 in a 95% humidified incubator. After 24 hours incubation, Steady Glo luciferase detection reagent (Promega, Madison, WI) was used for cell lysis and generation of a luminescent signal, proportional to γ-globin promoter driven firefly luciferase reporter expression. The luminescence intensities were read 30 minutes later on a Tecan Safire2 microplate reader (Tecan, Männedorf, Switzerland). The luminescence values were used for calculating fold-induction of luciferase over DMSO treated controls. The controls were used to calculate a Z′ factor value for each plate, a measure of screening assay quality.
# The active compounds from the primary screen were cherry-picked from mother plates and retested for firefly luciferase induction in an eight concentration dose-response assay (two fold dilution starting at 30 µM). The fold-induction values from dose-response curves were used for preliminary scaffold analysis and clustering using the Tripos Selector program and analyzed using the Jarvis Patrick routine, using default parameters [The Tripos Associates (Cetara), St. Louis, MO]. From each preliminary cluster, the largest conserved substructure present in at least half of the cluster members was identified.
# Some of the primary screen active compounds were repurchased and tested for activity in cell-based assays using the primary screening reporter cells in a ten concentration dose-response. Both firefly luciferase induction (γ-globin promoter activation using the One-Glo luciferase detection system; Promega, Madison, WI), and Renilla luciferase induction (β-globin induction the using Renilla-Glo Luciferase detection system; Promega, Madison, WI), were measured for specificity of compound activity. The cytotoxicity of the compounds was measured after 24 hours in the same cells using Cell-Titer Glo reagent (Promega, Madison, WI). The compounds were also tested in a biochemical screen for any inhibition to purified firefly luciferase enzyme (15 nM).
Structure (SMILES),γ-globin expression fold induction (qPCR) [1] [fold],"% F cells (FACS, gate P3) [2] [%]",fold increase in % HbF-positive cells (HbF-positive cells) [fold],γ-globin to β-globin (γ/β) mRNA ratio fold increase compared to DMSO [3] [fold],fold induction of firefly luciferase by positive control [4],fold induction of firefly luciferase by positive control ([4]; listed as sodium butyrate) [fold],responsiveness of dual luc β-YAC BMCs to known γ-globin inducers [4]
CCCC(=O)[O-].[Na+] [Sodium butyrate],9.9,15.9,7,1.8,5–6 fold,6.3±0.7,responsive
NC(=O)NO [hydroxyurea],,,,,,,responsive
CCCCC(=O)O [valeric acid],,,,,,,responsive
CCCC(CCC)C(=O)O [valproic acid],,,,,,,responsive
